{"source": "patent US20240251783A1", "about": "“COMPOSITIONS AND METHODS FOR LUNG PRESERVATION” (University Health Network, priority 2021, published 2024)", "key": {"[1]": {"test_system": "Human lung epithelial (BEAS-2B) cells", "assay": "Cell culture model simulating hypothermic lung preservation and warm reperfusion; MTS cell viability and phase contrast morphology", "assay_type": "cell-based", "details": "42 h CIT", "procedure": "(§1) Human lung epithelial (BEAS-2B) cells or human pulmonary microvascular endothelial cells (HPMEC) were cultured to confluence at 37° C., 5% CO2 in DMEM (Gibco; Waltham MA) with 10% of fetal bovine serum (FBS, Gibco), or in M199 medium (Thermo Scientific, Waltham MA) with 20% of FBS, respectively. After cells reached confluence, medium was replaced with different testing solutions, and cells were switched to a chamber at 4° C. with 50% O2 to simulate hypothermic lung preservation. After different periods of cold ischemic time (CIT), cells were switched back to DMEM+10% FBS or M199+20% FBS at 37° C. with 5% CO2 for 4 h to simulate reperfusion. Cell morphology was recorded with phase contrast microscopy.\n(§2) CellTiter 96® AQueous One Solution Cell Proliferation Assay (MTS) was used to determine effects of different solutions on cell viabilities. Cells were seeded in 96-well plates at 15,000 cells/100 μl/well, and incubated with serum containing culture medium as described above, at 37° C./5% CO2 overnight. After switching to different preservation solutions for various periods of CIT, and followed by 3 h simulated reperfusion, and then 20 μl of CellTiter 96@ AQueousOne Solution (Promega; Madison, WI) was added to each well. After additional 1 h incubation, optical density of each well was measured using a plate reader (Biotek Instrument Inc., Winooski, VT) set to 490 nm."}, "[2]": {"test_system": "human pulmonary microvascular endothelial cells (HPMEC)", "assay": "Cell culture model simulating hypothermic lung preservation and warm reperfusion; MTS cell viability", "assay_type": "cell-based", "details": "42 h CIT", "procedure": "as §1, §2"}}}
{"substance": "dextran 40", "values": [{"measurement": "effect of addition of dextran 40 on cell viability", "setting": "[1]; 50 mg/ml added to M199(p)", "value": "further significantly improved cell viability"}, {"measurement": "effect of addition of dextran 40 on cell viability", "setting": "[1]; 50 mg/ml added to RPMI-1640(p)", "value": "not further enhanced"}, {"measurement": "effect of addition of dextran 40 on cell viability", "setting": "[2]; 50 mg/ml added to M199(p)", "value": "further significantly improved cell viability"}, {"measurement": "effect of addition of dextran 40 on cell viability", "setting": "[2]; 50 mg/ml added to RPMI-1640(p)", "value": "not further enhanced"}]}
